Measurements taken from publication PMC8677648, “A robotic pill for oral delivery of biotherapeutics: safety, tolerability, and performance in healthy subjects” (Drug Delivery and Translational Research, 2021).

Key:
[1] = Study 1: pharmacokinetics of octreotide delivered via RP or IV injection (plasma LC/MS/MS); details: human, in vivo, 100 ug
Procedure: This was a single-center, open-label study.
Fluoroscopic imaging was performed with Siemens AXIOM Artis dMP using standard abdominal protocol.
Serial blood samples for PK analysis were collected immediately before the injection and at 5, 10, 15, 20, 25, 30, 40, 50, 60, 90, 120, 150, 180, and 240 min after dosing.
Blood samples were collected into potassium-EDTA treated lavender top tubes, plasma was separated via centrifugation and aliquots stored at −80℃ until analyzed. […] The analysis was performed using an API 5000 mass spectrometer from Applied Biosystems.
MS Excel (2016) and GraphPad (Version 8.4.3) were used for data analysis. Categorical data are expressed as counts and percentages, and continuous data as mean ± standard deviation (SD) or standard error (SE), as indicated. PK parameters were calculated using noncompartmental analysis (NCA) implemented within a validated installation of Phoenix® WinNonlin. The Cmax (peak plasma concentration) and Tmax (time to reach Cmax) were obtained graphically from the concentration vs. time profiles. Unpaired t tests were used to determine differences between groups with a p value of 0.05 or less deemed as significant.

[2] = in vivo, cited from earlier work
Procedure: For example, subjects need to take oral semaglutide at least 30 min before the first food, beverage, or other or ...

Row | Molecule | Cmax [1] | Tmax [1] | bioavailability ([2]; po) | half-life [2]
1 | C[C@@H](O)[C@@H]1NC(=O)[C@H](CCCCN)NC(=O)[C@@H](Cc2c[nH]c3ccccc23)NC(=O)[C@H](Cc2ccccc2)NC(=O)[C@@H](NC(=O)[C@H](N)Cc2ccccc2)CSSC[C@@H](C(=O)N[C@H](CO)[C@@H](C)O)NC1=O [octreotide] | 11.1 ng/mL | 5 min | – | –
2 | semaglutide | – | – | ~ 1% | 170 h
